A short description of series [1]: Kinetic solubility in pH 10 sodium hydroxide buffer at 1 to 250 uM after 2 hrs. The class given is physicochemical. The note with it: read-out: Kinetic_solubility.
The test system of series [2] is Mus musculus. As to the kind of experiment: Anti-inflammatory activity in Swiss mouse assessed as inhibition of LPS-induced pleural accumulation in total leucocytes at 1 to 100 ng/kg, ip pretreated for 1 hr followed by LPS stimulation and measured after 24 hrs by May-Grunwald-Giemsa staining-based Neubauer chamber based optical microscopy. The format is functional, organism-based.

Series [3] concerns Mus musculus. As to the kind of experiment: Anti-inflammatory activity in Swiss mouse assessed as inhibition of LPS-induced pleural accumulation in mononuclear cells at 1 to 100 ng/kg, ip pretreated for 1 hr followed by LPS stimulation and measured after 24 hrs by May-Grunwald-Giemsa staining-based Neubauer chamber based optical microscopy. The class given is functional, organism-based.

For series [4], the target named is T1, P2X purinoceptor 7 (Mus musculus) (UniProt Q9Z1M0).
T1 sequence (whole entry): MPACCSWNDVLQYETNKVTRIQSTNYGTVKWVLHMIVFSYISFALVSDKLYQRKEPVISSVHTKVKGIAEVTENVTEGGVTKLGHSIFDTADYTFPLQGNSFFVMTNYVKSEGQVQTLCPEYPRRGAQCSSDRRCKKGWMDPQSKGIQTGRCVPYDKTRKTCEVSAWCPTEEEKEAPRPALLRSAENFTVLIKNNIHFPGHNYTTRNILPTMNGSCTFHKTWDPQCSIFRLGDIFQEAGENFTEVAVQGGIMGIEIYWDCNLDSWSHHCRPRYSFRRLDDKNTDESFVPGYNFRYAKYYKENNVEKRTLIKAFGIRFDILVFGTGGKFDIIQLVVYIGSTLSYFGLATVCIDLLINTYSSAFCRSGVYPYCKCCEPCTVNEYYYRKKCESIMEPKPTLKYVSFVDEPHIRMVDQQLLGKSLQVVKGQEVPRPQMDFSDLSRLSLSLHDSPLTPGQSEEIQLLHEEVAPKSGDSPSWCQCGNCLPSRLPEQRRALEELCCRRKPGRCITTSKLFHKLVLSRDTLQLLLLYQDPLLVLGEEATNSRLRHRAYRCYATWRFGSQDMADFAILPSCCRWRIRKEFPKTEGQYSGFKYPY
As to the kind of experiment: Antagonist activity at mouse P2X7 receptor expressed in HEK293 cells assessed as inhibition of ATP-induced ethidium iodide uptake at 10 uM preincubated for 10 mins followed by ATP addition measured after 20 mins by FLIPR assay relative to 1 mM ATP. The format is cell-based.

Series [5] is described as follows: Apparent permeability across apical to basolateral side in human Caco2 cells at 100 uM after 60 mins by lucifer yellow dye-based fluorescence assay. The settings on record: Caco-2. The class given is ADME, cell-based.
Series [6] is described as follows: Cytotoxicity against Swiss mouse peritoneal macrophages after 24 hrs by LDH-release assay. The class given is cell-based, Peritoneal macrophage.
Series [7] has as its target T2, P2X purinoceptor 7 (Homo sapiens, UniProt Q99572).
T2 sequence (Q99572 whole entry): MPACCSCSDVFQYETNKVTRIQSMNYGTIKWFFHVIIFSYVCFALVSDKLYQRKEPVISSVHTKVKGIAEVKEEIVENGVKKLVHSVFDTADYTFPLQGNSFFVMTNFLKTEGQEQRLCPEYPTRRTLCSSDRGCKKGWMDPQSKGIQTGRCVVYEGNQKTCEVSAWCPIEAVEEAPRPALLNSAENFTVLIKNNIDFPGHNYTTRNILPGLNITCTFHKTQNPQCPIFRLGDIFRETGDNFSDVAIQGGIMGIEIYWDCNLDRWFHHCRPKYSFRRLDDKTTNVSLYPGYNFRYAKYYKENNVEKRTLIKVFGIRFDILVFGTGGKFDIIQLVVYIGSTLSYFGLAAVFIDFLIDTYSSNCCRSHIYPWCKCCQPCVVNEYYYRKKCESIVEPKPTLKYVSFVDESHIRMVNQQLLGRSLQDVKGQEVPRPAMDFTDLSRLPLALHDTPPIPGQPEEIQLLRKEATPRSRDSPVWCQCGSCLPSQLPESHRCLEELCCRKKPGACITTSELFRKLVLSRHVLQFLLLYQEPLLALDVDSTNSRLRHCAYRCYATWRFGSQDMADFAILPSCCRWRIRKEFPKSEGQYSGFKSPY
As to the kind of experiment: Antagonist activity at human P2X7 receptor expressed in HEK293 cells assessed as inhibition of ATP-induced ethidium iodide uptake preincubated for 10 mins followed by ATP addition measured after 20 mins by spectrofluorometric analysis. The format is cell-based.

Series [8] can be described thus: Intrinsic clearance in mouse liver microsomes assessed per mg protein at 1 uM measured up to 45 mins. The format is ADME, microsome. The note with it: read-out: CLH.
Series [9] in a line: Kinetic solubility in pH 4 citrate buffer at 1 to 250 uM after 2 hrs. The format is physicochemical. The settings on record: read-out: Kinetic_solubility.
Series [10] addresses T2, P2X purinoceptor 7. As to the kind of experiment: Antagonist activity at human P2X7 receptor in PMA-differentiated THP-1 macrophages assessed as inhibition of ATP-induced IL-1beta release preincubated for 30 mins followed by ATP addition measured after 30 mins by ELISA.
In series [11] the target is T3, P2X purinoceptor 7 (Mus musculus, UniProt Q9Z1M0).
T3 sequence (Q9Z1M0 whole entry): T1 sequence (whole entry)
As to the kind of experiment: Antagonist activity at P2X7 receptor in Swiss mouse peritoneal macrophages assessed as inhibition of ATP-induced current at holding potential of -60 mV preincubated for 5 mins followed by ATP addition measured after 5 mins by Whole cell patch-clamp analysis.

The nature of series [12]: Intrinsic clearance in human liver microsomes assessed per mg protein at 1 uM measured up to 45 mins. The format is ADME, microsome. The note with it: read-out: CLH.
The test system of series [13] is Mus musculus. As to the kind of experiment: Anti-inflammatory activity in Swiss mouse assessed as inhibition of LPS-induced pleural accumulation in eosinophils at 1 to 100 ng/kg, ip pretreated for 1 hr followed by LPS stimulation and measured after 24 hrs by May-Grunwald-Giemsa staining-based Neubauer chamber based optical microscopy. The format is functional, organism-based.

In series [14] the test system is Mus musculus. As to the kind of experiment: Anti-inflammatory activity in po dosed Swiss Webster mouse assessed as inhibition of carrageenan-induced paw edema pretreated for 60 mins followed by carrageenan administration and measured after 60 mins. The class given is functional.
For another series, the system named is Peritoneal macrophage. As to the kind of experiment: Toxicity in Swiss mouse peritoneal macrophages assessed as LDH release at 10 uM after 60 mins relative to 0.05% Triton X-100. The class given is cell-based. The note with it: 1 h.
A short description of series [15]: n-Octanol/PBS distribution coefficient, log D of the compound at pH 7.4 at 25 mM after 2 hrs. The format is physicochemical.
A short description of series [16]: Kinetic solubility in pH 7.4 phosphate buffer at 1 to 250 uM after 2 hrs. The class given is physicochemical. The settings on record: read-out: Kinetic_solubility.
The test system of series [17] is Mus musculus. As to the kind of experiment: Anti-inflammatory activity in ip dosed Swiss Webster mouse assessed as inhibition of carrageenan-induced paw edema pretreated for 60 mins followed by carrageenan administration and measured after 30 mins. The format is functional.
Series [18] deals with T3, P2X purinoceptor 7. As to the kind of experiment: Antagonist activity at P2X7 receptor in Swiss mouse peritoneal macrophages assessed as inhibition of BzATP-induced ethidium iodide uptake after 30 mins by spectrofluorometric analysis.
For series [19], the system named is Mus musculus. As to the kind of experiment: Anti-inflammatory activity in Swiss mouse assessed as inhibition of LPS-induced pleural accumulation in neutrophils cells at 100 mg/kg, ip pretreated for 1 hr followed by LPS stimulation and measured after 24 hrs by May-Grunwald-Giemsa staining-based Neubauer chamber based optical microscopy. The format is functional, organism-based.

Series [20] has as its system Mus musculus. As to the kind of experiment: Anti-inflammatory activity in Swiss mouse assessed as inhibition of LPS-induced nitric oxide production in pleural washes at 100 ng/kg, ip pretreated for 1 hr followed by LPS stimulation measured after 24 hrs by Lowry/Griess analysis. The format is functional, organism-based.

SMILES strings stand for the structures. The source made the active and inactive calls. The calls are words filed in the database; no cut-off is given here.

On to `CCOCc1cn(-c2ccc(Cl)cc2)nn1`, for which the solubility kinetic at 2 h in series [1], in [9] and in series [16] was < 250 µM in each case. Moreover, the outcome in the series with Mus musculus [2] and in the series on Mus musculus [3] was Active. Moreover, in series [4], the inhibition entry was “Active”. The Papp A→B at 1 h, 100 µM in series [5] is 77.4 ×10⁻⁶ cm/s. This compound also showed a CC50 at 24 h in series [6] of 4030 nM. In addition, the IC50 at P2X purinoceptor 7 [7] amounted to 5.3 nM; on P2X purinoceptor 7 [10], 67 nM; at P2X purinoceptor 7 [11], 69 nM; on P2X purinoceptor 7 [18], 59.2 nM. The microsomal CLint at 1 µM came to 22.2 µL/min/mg in [8] and 30.2 µL/min/mg in [12]. The result in the series on Mus musculus [13] was inactive. Further, the ID50 in the series with Mus musculus [14] amounted to 0.08049 µg/kg; with Mus musculus [17], 0.09435 µg/kg. In addition, the Activity was 8.33% with Peritoneal macrophage and “Dose-dependent effect” in the series with Mus musculus [17]. In addition, the logD at 2 h, 25000 µM in series [15] was -1.96.
For `O=C(O)Cc1ccccc1Nc1c(Cl)cccc1Cl` [DICLOFENAC], the outcome with Mus musculus [19] and in the series with Mus musculus [20] was inactive.

The values are drawn from ChEMBL document CHEMBL4130413, “1-Aryl-1H- and 2-aryl-2H-1,2,3-triazole derivatives blockade P2X7 receptor in vitro and inflammatory response in vivo” (Eur J Med Chem, 2017).
